Reference: PubChem BioAssay (NCI)
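Cells were grown in 96-well plates and exposed to each compound for 48 hours at five concentrations; endpoints were interpolated linearly between bracketing concentrations, or set to the highest concentration if not reached. GI50 = concentration required for 50% inhibition of growth. TGI marks complete inhibition of growth.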

Experiments:
Experiment in all cases: growth of human tumour cells (NCI), 48 h
[1] = system: MALME-3M melanoma
[2] = system: NCI-H226 lung
[3] = system: EKVX NSCLC
[4] = system: SN12C renal
[5] = system: RXF 393 renal
[6] = system: U251 CNS
[7] = system: A549 NSCLC
[8] = system: OVCAR-4 ovarian
[9] = system: RPMI-8226 leukemia
[10] = system: SK-MEL-2 melanoma
[11] = system: SF-539 CNS
[12] = system: NCI-H522 lung
[13] = system: NCI-H460 lung
[14] = system: COLO 205 colon
[15] = system: TK-10 renal
[16] = system: IGROV1 ovarian
[17] = system: HCC-2998 colon
[18] = system: SNB-19 CNS
[19] = system: OVCAR-3 ovarian
[20] = system: DMS 114 small cell lung
[21] = system: SK-MEL-28 melanoma
[22] = system: 786-0 renal
[23] = system: HCT-116 colon
[24] = system: SF-295 CNS
[25] = system: CAKI-1 renal
[26] = system: DLD-1 colon
[27] = system: SW-620 colon
[28] = system: OVCAR-8 ovarian
[29] = system: UO-31 renal
[30] = system: NCI-H23 lung
[31] = system: SNB-75 CNS
[32] = system: SR leukemia
[33] = system: LXFL 529 NSCLC
[34] = system: SNB-78 CNS
[35] = system: UACC-62 melanoma
[36] = system: M14 melanoma
[37] = system: M19-MEL melanoma
[38] = system: HCT-15 colon
[39] = system: OVCAR-5 ovarian
[40] = system: SF-268 CNS
[41] = system: HOP-18 NSCLC
[42] = system: KM20L2 colon

Question: Which results are given for `NCCN.NCCN.[Cl-].[O]=[Os+2]=[O]`?
Answer: GI50 [1]: > 100 µM; TGI [1]: > 100 µM; GI50 [2]: > 100 µM; TGI [2]: > 100 µM; GI50 [3]: > 100 µM; TGI [3]: > 100 µM; GI50 [4]: > 100 µM; TGI [4]: > 100 µM; GI50 [5]: > 100 µM; TGI [5]: > 100 µM; GI50 [6]: > 100 µM; TGI [6]: > 100 µM; GI50 [7]: > 100 µM; TGI [7]: > 100 µM; GI50 [8]: > 100 µM; TGI [8]: > 100 µM; GI50 [9]: > 100 µM; TGI [9]: > 100 µM; GI50 [10]: > 100 µM; TGI [10]: > 100 µM; GI50 [11]: > 100 µM; TGI [11]: > 100 µM; GI50 [12]: > 100 µM; TGI [12]: > 100 µM; GI50 [13]: > 100 µM; TGI [13]: > 100 µM; GI50 [14]: > 100 µM; TGI [14]: > 100 µM; GI50 [15]: > 100 µM; TGI [15]: > 100 µM; GI50 [16]: > 100 µM; TGI [16]: > 100 µM; GI50 [17]: > 100 µM; TGI [17]: > 100 µM; GI50 [18]: > 100 µM; TGI [18]: > 100 µM; GI50 [19]: > 100 µM; TGI [19]: > 100 µM; GI50 [20]: > 100 µM; TGI [20]: > 100 µM; GI50 [21]: > 100 µM; TGI [21]: > 100 µM; GI50 [22]: > 100 µM; TGI [22]: > 100 µM; GI50 [23]: > 100 µM; TGI [23]: > 100 µM; GI50 [24]: > 100 µM; TGI [24]: > 100 µM; GI50 [25]: > 100 µM; TGI [25]: > 100 µM; GI50 [26]: > 100 µM; TGI [26]: > 100 µM; GI50 [27]: > 100 µM; TGI [27]: > 100 µM; GI50 [28]: > 100 µM; TGI [28]: > 100 µM; GI50 [29]: > 100 µM; TGI [29]: > 100 µM; GI50 [30]: > 100 µM; TGI [30]: > 100 µM; GI50 [31]: 71 µM; TGI [31]: > 100 µM; GI50 [32]: 67.4 µM; TGI [32]: > 100 µM; GI50 [33]: > 100 µM; TGI [33]: > 100 µM; GI50 [34]: > 100 µM; TGI [34]: > 100 µM; GI50 [35]: > 100 µM; TGI [35]: > 100 µM; GI50 [36]: > 100 µM; TGI [36]: > 100 µM; GI50 [37]: 12 µM; TGI [37]: 28.8 µM; GI50 [38]: > 100 µM; TGI [38]: > 100 µM; GI50 [39]: > 100 µM; TGI [39]: > 100 µM; GI50 [40]: > 100 µM; TGI [40]: > 100 µM; GI50 [41]: > 100 µM; TGI [41]: > 100 µM; GI50 [42]: > 100 µM; TGI [42]: > 100 µM
